Experimental data from patent US8637526B2, “Pyrazolopyrimidine JAK inhibitor compounds and methods” (Genentech, Inc., priority 2008, dated 2014).
pEC50: −log10 of the molar value. Like-named read-outs stand apart in the source and are kept apart here.

Experiments:
TF-1 cells = assay: EPO-stimulated STAT5 phosphorylation in TF-1 cells (JAK2-dependent signaling, MSD); format: cell-based; settings: Homo sapiens, read-out: EPO pSTAT5 TF1 EC50
Procedure: The activities of compounds were determined in cell-based assays that are designed to measure JAK1 or JAK2-dependent signaling. Compounds were serially diluted in DMSO and incubated with TF-1 cells (American Type Culture Collection (ATCC); Manassas, Va.) in 384-well microtiter plates in OptiMEM medium without phenol red, 1% Charcoal/Dextran stripped FBS, 0.1 mM NEAA, 1 mM sodium pyruvate (Invitrogen Corp.; Carlsbad, Calif.) at a final cell density of 100,000 cells per well and a final DMSO concentration of 0.2%. Human recombinant IL-6 (R&D systems; Minneapolis, Minn.) or EPO (Invitrogen Corp.; Carlsbad, Calif.) was then added at a final concentration of 30 ng/mL or 10 Units/mL, respectively, to the microtiter plates containing the TF-1 cells and compound and the plates were incubated for 30 min at 37° C. Compound-mediated effects on STAT3 or STATS phosphorylation were then measured in the lysates of cells incubated in the presence of IL-6 or EPO, respectively, using the Meso Scale Discovery (MSD) technology (Gaithersburg, Md.) according to the manufacturer's protocol and EC50 values were determined.

NK92 cells = assay: IL-12-stimulated STAT4 phosphorylation in NK92 cells (TYK2-dependent signaling, MSD); format: cell-based; settings: read-out: IL12-pSTAT4 NK92 EC50
Procedure: The activities of compounds were determined in cell-based assays that are designed to measure TYK2-dependent signaling. Compounds were serially diluted in DMSO and incubated with NK92 cells (American Type Culture Collection (ATCC); Manassas, Va.) in 96-well microtiter plates in RPMI medium at a final cell density of 100,000 cells per well and a final DMSO concentration of 0.57%. Human recombinant IL-12 (R&D systems; Minneapolis, Minn.) was then added at a final concentration of 10 ng/mL to the microtiter plates containing the NK92 cells and compound and the plates were incubated for 1 hr at 37° C. Compound-mediated effects on STAT4 phosphorylation were then measured in the lysates of incubated cells using the Meso Scale Discovery (MSD) technology (Gaithersburg, Md.) according to the manufacturer's protocol and EC50 values were determined

[1] = 0.5 h, TF-1 cells, EPO 10 Units/mL, 30 min
[2] = NK92 cells, IL-12 10 ng/mL, 1 hr

| pEC50 (TF-1 cells; [1]) | pEC50 (NK92 cells; [2]) | SMILES | pEC50 (TF-1 cells; TF-1, 0.5 h) | pEC50 (NK92 cells; NK92, 1 h) |
| --- | --- | --- | --- | --- |
| – | – | Cc1nc(-c2ccccc2C)c(NC(=O)c2cnn3ccc(N)nc23)s1 [Example 231, 5-amino-pyrazolo[1,5-a]pyrimidine-3-carboxylic acid (2-methyl-4-o-tolyl-thiazol-5-yl)-amide] | 6.64 | 5.48 |
| 6.68 | 5.96 | O=C(NC1CCOCC1)c1cnn2ccc(NC3Cc4ccccc4C3)nc12 [Example 297, 5-(Indan-2-ylamino)-pyrazolo[1,5-a]pyrimidine-3-carboxylic acid (tetrahydro-pyran-4-yl)-amide] | – | – |
| 6.99 | 6.47 | Cc1cc(NC(=O)c2cnn3ccc(N)nc23)n(-c2cc(Cl)ccc2C)n1 [Example 226] | – | – |
| 6.83 | 6.22 | Nc1ccn2ncc(C(=O)Nc3ccnn3-c3cc(Cl)ccc3Cl)c2n1 [Example 277, 5-Amino-pyrazolo[1,5-a]-pyrimidine-3-carboxylic acid [2-(2,5-dichloro-phenyl)-2H-pyrazol-3-yl]-amide] | – | – |
| 6.43 | 5.28 | Cc1cc(NC(=O)c2cnn3ccc(N)nc23)n(-c2ccccc2C)n1 [Example 343, 5-Amino-pyrazolo[1,5-a]-pyrimidine-3-carboxylic acid (5-methyl-2-o-tolyl-2H-pyrazol-3-yl)-amide] | – | – |
| 7.26 | 6.80 | Nc1ccn2ncc(C(=O)Nc3c[nH]nc3-c3cc(Cl)ccc3Cl)c2n1 [Example 248, 5-Amino-pyrazolo[1,5-a]-pyrimidine-3-carboxylic acid [3-(2,5-dichloro-phenyl)-1H-pyrazol-4-yl]-amide] | – | – |
| 6.13 | 6.24 | Cc1cc(NC(=O)c2cnn3ccc(Nc4cccc(C(F)(F)F)c4)nc23)on1 [Example 240, 5-(3-Trifluoromethyl-phenylamino)-pyrazolo-[1,5-a]pyrimidine-3-carboxylic acid (3-methyl-isoxazol-5-yl)-amide] | – | – |

| SMILES | pEC50 (TF-1 cells; [1]) | pEC50 (NK92 cells; [2]) | pEC50 (TF-1 cells; TF-1, 0.5 h) | pEC50 (NK92 cells; NK92, 1 h) |
| --- | --- | --- | --- | --- |
| O=C(N[C@H]1CC[C@H](O)CC1)c1cnn2ccc(NC3CCc4ccccc43)nc12 (stereo partly shown) [Example 299, 5-(Indan-1-ylamino)-pyrazolo[1,5-a]pyrimidine-3-carboxylic acid (4-hydroxy-cyclohexyl)-amide] | 6.64 | 5.75 | – | – |
